Source: US20250034110A1, “LPAR1 ANTAGONISTS AND USES THEREOF” (Pipeline Therapeutics, Inc., priority 2021, published 2025)
Where two headings read alike, the source gives them in different places.

Molecular target: human LPAR1 (Homo sapiens, UniProt Q92633)
Assay: In vitro functional assay of lysophosphatidic acid receptor 1 activity (calcium flux)
Assay type: cell-based
[1] = B103 cells stably expressing human LPAR1, calcium flux (Fluo-4 NW) after lysophosphatidic acid (18:1) at EC80, 100 pM to 10 μM, read-out: LPAR1 IC50

Chain of human LPAR1 (Q92633 whole entry): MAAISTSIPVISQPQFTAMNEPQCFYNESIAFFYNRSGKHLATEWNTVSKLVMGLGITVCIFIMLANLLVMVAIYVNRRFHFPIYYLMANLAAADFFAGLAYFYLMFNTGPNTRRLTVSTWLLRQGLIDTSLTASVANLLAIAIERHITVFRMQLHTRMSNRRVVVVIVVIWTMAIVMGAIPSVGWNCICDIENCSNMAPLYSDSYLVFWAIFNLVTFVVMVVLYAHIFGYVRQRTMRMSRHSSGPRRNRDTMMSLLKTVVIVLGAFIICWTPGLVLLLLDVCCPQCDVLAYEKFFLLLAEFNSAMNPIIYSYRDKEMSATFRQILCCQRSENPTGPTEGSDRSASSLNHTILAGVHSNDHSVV

Compound: CCOC(=O)N1CC(N(C(=O)Nc2ccc(C)nc2OC(F)F)c2ccccc2C(C)C)C1 [Example 78, ethyl 3-(3-(2-(difluoromethoxy)-6-methylpyridin-3-yl)-1-(2-isopropylphenyl)ureido)azetidine-1-carboxylate]
- IC50 [1]: 10 to 100 nM

Compound: CNC(=O)N1CCC(N(C(=O)Nc2ccc(OC)nc2OC(F)F)c2ccccc2C(C)C)CC1 [Example 64, 4-(3-(2-(difluoromethoxy)-6-methoxypyridin-3-yl)-1-(2-isopropylphenyl)ureido)-N-methylpiperidine-1-carboxamide]
- IC50 (LPAR1 IC50): 10 to 100 nM

Compound: CC(=O)N1CCC(N(C(=O)Nc2cncc(F)c2)c2ccccc2C(C)C)CC1 [Example 246]
- IC50 (LPAR1 IC50): > 1000 nM

Compound: CC(=O)N1CCC(N(C(=O)Nc2ccc(OC(F)F)nc2Cl)c2ccccc2C(C)C)CC1 [Example 108]
- IC50 (LPAR1 IC50): 100 to 1000 nM

Compound: COc1ccc(NC(=O)N(c2ccccc2C(C)C)[C@H]2CC[C@@H](C(=O)O)CC2)c(OC(F)F)n1 [Example 145]
- IC50 [1]: 100 to 1000 nM

Compound: COc1ccc(NC(=O)N(c2ccccc2C(C)C)C2C3CC2CN(C(C)=O)C3)c(OC(F)F)n1 (stereo not drawn) [Example 53, 1-(3-acetyl-3-azabicyclo[3.1.1]heptan-6-yl)-3-(2-(difluoromethoxy)-6-methoxypyridin-3-yl)-1-(2-isopropylphenyl)urea]
- IC50 (LPAR1 IC50): 100 to 1000 nM

Compound: Cc1ccc(NC(=O)N(c2ccccc2C(C)C)[C@H]2CC[C@H](C(=O)O)CC2)c(OCCF)n1 [Example 338, (1r,4r)-4-(3-(2-(2-fluoroethoxy)-6-methylpyridin-3-yl)-1-(2-isopropylphenyl)ureido)cyclohexane-1-carboxylic acid]
- IC50 [1]: 10 to 100 nM

Compound: Cc1ccc(NC(=O)N(c2ccccc2C(C)C)C2CC2)c(OC(F)F)n1 [Example 13, 1-cyclopropyl-3-(2-(difluoromethoxy)-6-methylpyridin-3-yl)-1-(2-isopropylphenyl)urea]
- IC50 [1]: > 1000 nM

Compound: COc1cc(C)ccc1NC(=O)N(c1ccccc1C(C)C)[C@H]1CC[C@H](C(=O)O)CC1 [Example 327, (1r,4r)-4-(1-(2-isopropylphenyl)-3-(2-methoxy-4-methylphenyl)ureido)cyclohexane-1-carboxylic acid]
- IC50 [1]: < 10 nM

Compound: CC(=O)N1CCC(N(C(=O)Nc2ccc(C)nc2OC(F)F)c2cnccc2C(C)C)CC1 [Example 36, 1-(1-acetylpiperidin-4-yl)-3-(2-(difluoromethoxy)-6-methylpyridin-3-yl)-1-(4-isopropylpyridin-3-yl)urea]
- IC50 (LPAR1 IC50): 100 to 1000 nM

Compound: CC(=O)N1CC(N(C(=O)Nc2ccc(C)cc2OC(F)F)c2ccccc2C(C)C)C1 [Example 117, 1-(1-acetylazetidin-3-yl)-3-(2-(difluoromethoxy)-4-methylphenyl)-1-(2-isopropylphenyl)urea]
- IC50 [1]: 10 to 100 nM

Compound: CC(=O)N1CCC(N(C(=O)Nc2ncc(Br)cc2OC(F)F)c2ncccc2C(C)C)CC1 [Example 142]
- IC50 (LPAR1 IC50): > 1000 nM

Compound: CC(=O)N1CCC(N(C(=O)Nc2ccc(C)nc2OC(F)F)c2cccc(C)c2)CC1 [Example 33, 1-(1-acetylpiperidin-4-yl)-3-(2-(difluoromethoxy)-6-methylpyridin-3-yl)-1-(m-tolyl)urea]
- IC50 (LPAR1 IC50): > 1000 nM

Compound: COc1ccc(NC(=O)N(c2ccccc2C(C)C)[C@H]2CC[C@H](OC)CC2)c(OC(F)F)n1 [Example 40, 3-(2-(difluoromethoxy)-6-methoxypyridin-3-yl)-1-(2-isopropylphenyl)-1-((1r,4r)-4-methoxycyclohexyl)urea]
- IC50 [1]: 10 to 100 nM

Compound: Cc1ccc(NC(=O)N(CC2COC2)c2ccccc2C(C)C)c(OC(F)F)n1 [Example 15, 3-(2-(difluoromethoxy)-6-methylpyridin-3-yl)-1-(2-isopropylphenyl)-1-(oxetan-3-ylmethyl)urea]
- IC50 [1]: 10 to 100 nM

Compound: Cc1ccc(NC(=O)N(c2ccccc2C(C)C)C2CC3(CCC(C(=O)O)CC3)C2)c(OC(F)F)n1 (stereo not drawn) [Example 249]
- IC50 [1]: 10 to 100 nM

Compound: [2H]C([2H])([2H])Oc1ccc(NC(=O)N(c2ccccc2C(C([2H])([2H])[2H])C([2H])([2H])[2H])[C@H]2CC[C@H](C(=O)O)CC2)c(OC(F)F)n1 [Example 262]
- IC50 [1]: < 10 nM

Compound: CC(C)c1ccccc1N(C(=O)Nc1ccc(Cl)cn1)[C@H]1CC[C@H](C(=O)O)CC1 [Example 297, (1r,4r)-4-(3-(5-chloropyridin-2-yl)-1-(2-isopropylphenyl)ureido)cyclohexane-1-carboxylic acid]
- IC50 [1]: 10 to 100 nM

Compound: Cc1ccc(NC(=O)N(CC2CS(=O)(=O)C2)c2ccccc2C(C)C)c(OC(F)F)n1 [Example 19, 3-(2-(difluoromethoxy)-6-methylpyridin-3-yl)-1-((1,1-dioxidothietan-3-yl)methyl)-1-(2-isopropylphenyl)urea]
- IC50 [1]: 100 to 1000 nM

Compound: COc1ccc(NC(=O)N(c2ccccc2C(C)C)[C@H]2CC[C@H](C(=O)O)CC2)c(OC(F)F)n1 [Example 144, trans-4-(3-(2-(difluoromethoxy)-6-methoxypyridin-3-yl)-1-(2-isopropylphenyl)ureido)cyclohexane-1-carboxylic acid]
- IC50 [1]: 10 to 100 nM

Compound: Cc1ccc(NC(=O)N(c2ccccc2C(C)C)[C@H]2C[C@H](C(N)=O)C2)c(OC(F)F)n1 [Example 186, (1r,3r)-3-(3-(2-(difluoromethoxy)-6-methylpyridin-3-yl)-1-(2-isopropylphenyl)ureido)cyclobutane-1-carboxamide]
- IC50 [1]: > 1000 nM

Compound: Cc1ccc(NC(=O)N(c2ccccc2C(C)C)[C@H]2CC[C@H](S(C)(=O)=O)CC2)c(OC(F)F)n1 [Example 256, 3-(2-(difluoromethoxy)-6-methylpyridin-3-yl)-1-(2-isopropylphenyl)-1-((1r,4r)-4-(methylsulfonyl)cyclohexyl)urea]
- IC50 [1]: 100 to 1000 nM

Compound: Cc1ccc(NC(=O)N(c2ccccc2C(C)C)C2CC(O)(C(F)(F)F)C2)c(OC(F)F)n1 (stereo not drawn) [Example 196, 3-(2-(difluoromethoxy)-6-methylpyridin-3-yl)-1-(3-hydroxy-3-(trifluoromethyl)cyclobutyl)-1-(2-isopropylphenyl)urea]
- IC50 [1]: > 1000 nM

Compound: COCc1ccc(NC(=O)N(c2ccccc2C(C)C)[C@H]2CC[C@H](C(=O)O)CC2)c(OCC(F)F)n1 [Example 318, (1r,4r)-4-(3-(2-(2,2-difluoroethoxy)-6-(methoxymethyl)pyridin-3-yl)-1-(2-isopropylphenyl)ureido)cyclohexane-1-carboxylic acid]
- IC50 [1]: 100 to 1000 nM

Compound: CC(=O)N1CC2(CC(N(C(=O)Nc3ncc(Cl)cc3OC(F)F)c3ccccc3C(C)C)C2)C1 [Example 124]
- IC50 [1]: 100 to 1000 nM

Compound: COc1ccc(NC(=O)N(c2ccccc2C(C)C)[C@H]2CCC[C@@H](C(=O)O)C2)c(OC(F)F)n1 [Example 147]
- IC50 [1]: < 10 nM

Compound: Cc1ccc(NC(=O)N(C[C@@H]2C[C@H]2C(=O)O)c2ccccc2C(C)C)c(OC(F)F)n1 (racemic) [Example 228]
- IC50 [1]: 100 to 1000 nM

Compound: COc1ccc(NC(=O)N(c2ccccc2C(C)C)[C@H]2CC[C@H](C(=O)O)CC2)c(OCCF)n1 [Example 315, (1r,4r)-4-(3-(2-(2-fluoroethoxy)-6-methoxypyridin-3-yl)-1-(2-isopropylphenyl)ureido)cyclohexane-1-carboxylic acid]
- IC50 [1]: 10 to 100 nM

Compound: COc1cc(C(F)F)ncc1NC(=O)N(c1ccccc1C(C)C)[C@H]1CC[C@H](C(=O)O)CC1 [Example 294, (1r,4r)-4-(3-(6-(difluoromethyl)-4-methoxypyridin-3-yl)-1-(2-isopropylphenyl)ureido)cyclohexane-1-carboxylic acid]
- IC50 [1]: 100 to 1000 nM

Compound: Cc1ccc(NC(=O)N(c2ccccc2C(C)C)C2CCC(=O)CC2)c(OC(F)F)n1 [Example 243]
- IC50 [1]: 100 to 1000 nM
